Assay results taken from BindingDB's records for doi:10.1016/j.bmcl.2018.11.028 (Kumamoto University, 2019).

Legend:
[1] = Inhibition of 20s constitutive proteasome beta2 trypsin-like activity in human erythrocytes using Boc-Leu-Arg-Arg-MCA as substrate preincubated for 10 mins followed by substrate addition and measured after 6 hrs by fluorescence assay
[2] = Inhibition of 20s constitutive proteasome beta1 caspase-like activity in human erythrocytes using […] as substrate preincubated for 10 mins followed by substrate addition and measured after 6 hrs by fluorescence assay

IC50 [1] | IC50 [2] | Structure (SMILES)
6.3 µM | 0.48 µM | C1=C2CN3CCCC/C=C\CC[C@@H]4CN(CCCC/C=C\CC[C@H]1C3)CC[C@@H]24
– | 4.7 µM | C1=C\CCc2cc3c[n+](c2)CCCC/C=C\CC[C@@H]2CN(CCCC/1)CC[C@@H]32
